Assay results: patent US7691860B2, “Sulfonamide derivatives” (Banyu Pharmaceutical Co., Ltd., priority 2004, dated 2010)

What follows are compounds tested against T1, human NPY Y5 receptor (Homo sapiens, UniProt Q15761) (assay: NPY binding inhibition test ([125I]peptide YY binding to membranes of NPY Y5 receptor expressing cells)). Settings: membrane sample of NPY Y5 receptor expressed cells, 25° C., 2 hours, read-out: IC50 against specific peptide YY binding.
T1 construct: expressed in transfected cells; host or cells: COS-7, CHO and LM(tk-)
T1 sequence (Q15761 1-445): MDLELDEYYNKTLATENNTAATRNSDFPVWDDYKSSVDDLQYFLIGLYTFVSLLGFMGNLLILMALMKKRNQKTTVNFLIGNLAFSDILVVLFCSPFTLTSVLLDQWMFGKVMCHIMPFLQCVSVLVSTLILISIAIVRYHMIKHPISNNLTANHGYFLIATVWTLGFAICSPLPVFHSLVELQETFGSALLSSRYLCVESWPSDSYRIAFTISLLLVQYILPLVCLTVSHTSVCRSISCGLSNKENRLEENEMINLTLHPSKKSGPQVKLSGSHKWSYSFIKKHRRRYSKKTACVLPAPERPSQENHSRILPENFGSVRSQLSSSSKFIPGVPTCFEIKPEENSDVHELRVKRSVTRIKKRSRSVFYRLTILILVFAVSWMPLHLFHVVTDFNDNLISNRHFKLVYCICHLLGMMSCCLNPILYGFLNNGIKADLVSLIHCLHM
Text: The cDNA sequence (refer to the specification of WO 96/16542) encoding human NPY Y5 receptor was cloned into the expression vectors, pcDNA3, pRc/RSV (supplied by Invitrogen Co.) and pCI-neo (supplied by Promega Co.). The resultant expression vectors were transfected into the host cells, COS-7, CHO and LM(tk−) (American Type Culture Collection) using the cationic lipid method (refer to Proceedings of the National Academy of Sciences of the United States of America, vol. 84, pp. 7413 (1987)) to give NPY Y5 receptor expression cells. A membrane sample prepared from the NPY Y5 receptor expressed cells was incubated together with a test compound and 20,000 cpm of [^125I]peptide YY (supplied by NEN Co.) in an assay buffer (25 mM Tris buffer, pH 7.4, containing 10 mM of magnesium chloride, 1 mM of phenylmethylsulfonyl fluoride, 0.1% bacitracin and 0.5% bovine serum albumin) at 25° C. for 2 hours, followed by filtration through glassfilter GF/C. After washing with 5 mM Tris buffer (pH7.4) containing 0.3% BSA, radioactivity of the cake on the filter was measured. Non-specific binding was measured in the presence of 1 μM of peptide YY, and a 50% Inhibition Concentration (IC50 value) of the test compound against specific peptide YY binding was determined (refer to Endocrinology, vol. 131, pp. 2090 (1992)).

| SMILES | IC50 [nM] |
| --- | --- |
| CC(C)(C)S(=O)(=O)N[C@H]1CC[C@H](c2nc3nc(-c4ccccc4)ncc3[nH]2)CC1 [Example 9, 8-(trans-4-tert-butylsulfonylamino-cyclohexyl)-2-phenylpurine] | 1.6 |
| CC(C)(C)S(=O)(=O)N[C@H]1CC[C@H](c2nc3nc(-c4ccc(F)cc4)ncc3[nH]2)CC1 [Example 7, 8-(trans-4-tert-butylsulfonylamino-cyclohexyl)-2-(4-fluorophenyl)purine] | 1.2 |
| CC(C)(C)S(=O)(=O)N[C@H]1CC[C@H](c2nc3nc(-c4ccccc4F)ccc3[nH]2)CC1 [Example 4, 2-(trans-4-tert-butylsulfonylamino-cyclohexyl)-5-(2-fluorophenyl)imidazo[4,5-b]pyridine] | 1.4 |
| CS(=O)(=O)Nc1ccccc1N1CCN(c2nc3nc(-c4ccccc4)ncc3[nH]2)CC1 [Example 22, 8-{1-(2-methylsulfonylaminophenyl)piperazin-4-yl}-2-phenylpurine] | 1.7 |

Further lines, results first:

| IC50 [nM] | SMILES |
| --- | --- |
| 1.5 | CC(C)(C)S(=O)(=O)NC1CCN(c2nc3ccc(-c4ccccc4)cc3[nH]2)CC1 [Example 17, 2-(4-tert-butylsulfonylaminopiperidin-1-yl)-5-phenylbenzimidazole] |
| 0.67 | CC(C)(C)S(=O)(=O)N[C@H]1CC[C@H](c2nc3ccc(-c4ccccc4)cc3[nH]2)CC1 [Example 3, 2-(trans-4-tert-butylsulfonylamino-cyclohexyl)-5-phenylbenzimidazole] |
